Laboratory results from patent US20140154330A1, “SPHERICAL PARTICLES OF CLOPIDOGREL BISULFATE, PHARMACEUTICAL COMPOSITION COMPRISING THE SAME, AND PREPARATION METHOD THEREOF” (ASTECH. CO., LTD., priority 2011, published 2014).

Assays:
[1] = laser diffraction, dry module, 1 bar
Procedure: The particles obtained in Example 1 and Comparative Examples 1 and 2 were analyzed for particle size distribution using a particle size analyzer (Mastersizer 2000®, Malvern) based on laser diffraction. The samples were injected at a pressure of 1 bar with a dry module (Scirocco 2000®, Malvern). Each particle was measured for particle size (d0.1), particle size (d0.5) and particle size (d0.9).

[2] = crystalline form; see U.S. Pat. No. 6,429,210; cited from earlier work

Row | Structure (SMILES) | d(0.1) [1] | d(0.5) [1] | d(0.9) [1] | density [2]
1 | COC(=O)[C@H](c1ccccc1Cl)N1CCc2sccc2C1 [Example 1, clopidogrel bisulfate] | 52.536 μm | 74.567 μm | 106.074 μm | –
2 | COC(=O)[C@H](c1ccccc1Cl)N1CCc2sccc2C1 [Form I, clopidogrel bisulfate] | – | – | – | 1.505 g/cm^2
3 | COC(=O)[C@H](c1ccccc1Cl)N1CCc2sccc2C1 [Form II, clopidogrel bisulfate] | – | – | – | 1.462 g/cm^2

Continued, in another order:

Row | d(0.1) [1] | d(0.5) [1] | d(0.9) [1] | Structure (SMILES) | density [2]
4 | 1.052 μm | 6.055 μm | 13.724 μm | COC(=O)[C@H](c1ccccc1Cl)N1CCc2sccc2C1 [Comp. Example 1, clopidogrel bisulfate] | –
5 | 8.475 μm | 85.770 μm | 168.393 μm | COC(=O)[C@H](c1ccccc1Cl)N1CCc2sccc2C1 [Comp. Example 2, clopidogrel bisulfate] | –
